Results taken from paper PMC9228282, “Catalytic Properties of Caseinolytic Protease Subunit of Plasmodium knowlesi and Its Inhibition by a Member of δ-Lactone, Hyptolide” (Molecules, 2022).
Like-named read-outs stand apart in the source and are kept apart here. Values belong to the molecule of their own block, whether it stands above or below them.

What was measured:
[1] = target: T1, caseinolytic protease proteolytic subunit of Plasmodium knowlesi (Pk-ClpP) (Plasmodium knowlesi, UniProt A0A384LAC0); assay: chromogenic protease assay with N-CBZ-Glycine p-nitrophenyl ester on purified Pk-ClpP; format: biochemical
T1 construct: gene PKNH_0835300
T1 sequence (A0A384LAC0 141-372 limits assumed): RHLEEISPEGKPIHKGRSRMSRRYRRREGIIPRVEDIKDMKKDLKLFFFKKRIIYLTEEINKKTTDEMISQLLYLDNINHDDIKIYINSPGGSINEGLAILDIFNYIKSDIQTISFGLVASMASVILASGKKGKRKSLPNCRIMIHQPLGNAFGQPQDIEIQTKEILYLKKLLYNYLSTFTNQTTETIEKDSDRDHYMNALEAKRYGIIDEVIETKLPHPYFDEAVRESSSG

[2] = target: T1, caseinolytic protease proteolytic subunit of Plasmodium knowlesi (Pk-ClpP)
[3] = target: caseinolytic protease proteolytic subunit (ClpP) of Plasmodium knowlesi (Plasmodium knowlesi); assay: SEC; purified Pk-ClpP on HiLoad 16/60 Superdex 200pg, 50 mM Tris-HCl pH 8.0, 50 mM NaCl, 0.5 mL/min; size by comparison with protein markers

IC50 ([1]; read-out: IC50): 0.0174 ± 0.00144 µM
Molecule: CC(=O)O[C@H](/C=C\[C@H]1CC=CC(=O)O1)C[C@@H](OC(C)=O)[C@H](C)OC(C)=O [Hyp, hyptolide]

Molecule: O=C(CNC(=O)OCc1ccccc1)Oc1ccc([N+](=O)[O-])cc1 [N-CBZ-Glycine p-nitrophenyl ester]
Km [2]: 3.07 ± 0.18 µM

Molecule: O=S(=O)(F)Cc1ccccc1 [PMSF, phenylmethylsulfonyl fluoride, reference compound]
IC50 [1]: 0.0069 ± 0.00018 µM

stoichiometry N [3]: 7
Molecule: caseinolytic protease proteolytic subunit (ClpP) of Plasmodium knowlesi (enzyme)
